Measured values as given in patent US8044047B2, “5-substituted benzoxazines” (Hoffman-La Roche Inc., priority 2008, dated 2011).

molecular target: T1, recombinant human 5-HT5A receptor (Homo sapiens, UniProt P47898); experiment: [3H]LSD radioligand binding assay, membranes of HEK-EBNA cells transiently expressing 5-HT5A receptors; settings: [3H]LSD approx. 1 nM, SPA beads, 120 min at room temperature; Ki from IC50 by the Cheng-Prussoff equation
T1 construct: expressed in transfected cells; host or cells: HEK-EBNA (Human Embryonic Kidney-EBNA) cells, transient cDNA expression; membranes
Experimental: A [^3H]LSD radioligand binding assay was used to determine the affinity of the compounds for the recombinant human 5-HT5A receptor, in membranes from transiently (cDNA) expressed 5-HT5A receptors in Human Embryonic Kidney-EBNA (HEK-EBNA) cells. Assay buffer consisted of Tris (50 mM) buffer containing 1 mM EGTA, 10 mM MgCl2 (pH 7.4) and 10 μM pargyline. The binding assay was carried out in 96-well-plates in the presence of [^3H]LSD (approximately 1 nM), approximately 2 μg/well of membrane protein, and 0.5 mg of Ysi-poly-1-lysine SPA beads in a final volume of 200 μl of buffer. Non-specific binding was defined using methiothepin 2 μM. Compounds were tested at 10 concentrations. All assays were conducted in duplicate and repeated at least two times. Assay plates were incubated for 120 min at room temperature before centrifugation. Bound ligand was determined using a Packard Topcount scintillation counter. IC50 values were calculated using a non-linear curve fitting program and Ki values calculated using the Cheng-Prussoff equation.

T1 sequence (P47898 whole entry): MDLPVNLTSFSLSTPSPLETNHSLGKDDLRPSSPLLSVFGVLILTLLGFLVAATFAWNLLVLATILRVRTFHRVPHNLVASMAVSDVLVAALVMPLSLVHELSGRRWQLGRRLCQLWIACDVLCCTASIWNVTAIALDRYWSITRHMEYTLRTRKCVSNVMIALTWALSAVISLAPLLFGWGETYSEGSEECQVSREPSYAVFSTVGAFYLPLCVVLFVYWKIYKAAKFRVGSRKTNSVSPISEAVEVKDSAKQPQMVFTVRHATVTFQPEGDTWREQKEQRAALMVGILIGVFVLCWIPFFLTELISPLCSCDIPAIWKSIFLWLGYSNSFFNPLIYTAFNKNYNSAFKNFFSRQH

Ki [µM] | SMILES
0.005 | CS(=O)(=O)Nc1cccc2c1COC(N[C@@H]1CCc3ccccc31)=N2 [Example 10, N-[2-((R)-Indan-1-ylamino)-4H-benzo[d][1,3]oxazin-5-yl]-methanesulfonamide]
0.106 | Brc1cccc2c1COC(N[C@@H]1CCc3ccccc31)=N2 [Example 9, (5-Bromo-4H-benzo[d][1,3]oxazin-2-yl)-(R)-indan-1-yl-amine]
0.01 | COc1cccc2c1C(NC1=Nc3cccc(NS(=O)(=O)c4cc(F)cc(F)c4)c3CO1)CO2 (stereo not drawn) [Example 7, 3,5-Difluoro-N-[2-(4-methoxy-2,3-dihydro-benzofuran-3-ylamino)-4H-benzo[d][1,3]oxazin-5-yl]-benzenesulfonamide]
0.002 | Clc1ccc(Nc2cccc3c2COC(N[C@@H]2CCc4ccccc42)=N3)cc1 [Example 15, N^5-(4-Chloro-phenyl)-N^2—(R)-indan-1-yl-4H-benzo[d][1,3]oxazine-2,5-diamine]
0.003 | Fc1ccc(Nc2cccc3c2COC(N[C@@H]2CCc4ccccc42)=N3)cc1 [Example 14, N^5-(4-Fluoro-phenyl)-N^2—(R)-indan-1-yl-4H-benzo[d][1,3]oxazine-2,5-diamine]
0.027 | COc1cccc2c1C(NC1=Nc3cccc(N)c3CO1)CO2 (stereo not drawn) [Example 4, N^2-(4-Methoxy-2,3-dihydro-benzofuran-3-yl)-4H-benzo[d][1,3]oxazine-2,5-diamine]
0.002 | O=S(=O)(Nc1cccc2c1COC(N[C@@H]1CCc3ccccc31)=N2)C1CC1 [Example 8, Cyclopropanesulfonic acid [2-((R)-indan-1-ylamino)-4H-benzo[d][1,3]oxazin-5-yl]-amide]
0.131 | O=C(Cc1ccc(Cl)cc1)Nc1cccc2c1COC(N[C@@H]1CCc3ccccc31)=N2 [Example 5, 2-(4-Chloro-phenyl)-N-[2-((R)-indan-1-ylamino)-4H-benzo[d][1,3]oxazin-5-yl]-acetamide]
0.078 | Fc1ccc(-c2cccc3c2COC(N[C@@H]2CCc4ccccc42)=N3)cc1 [Example 13, [5-(4-Fluoro-phenyl)-4H-benzo[d][1,3]oxazin-2-yl]-(R)-indan-1-yl-amine]
0.057 | Clc1cccc2c1COC(N[C@@H]1CCc3ccccc31)=N2 [Example 1, (5-Chloro-4H-benzo[d][1,3]oxazin-2-yl)-(R)-indan-1-yl-amine]
0.002 | O=S(=O)(Nc1cccc2c1COC(N[C@@H]1CCc3ccccc31)=N2)c1cc(F)cc(F)c1 [Example 6, 3,5-Difluoro-N-[2-((R)-indan-1-ylamino)-4H-benzo[d][1,3]oxazin-5-yl]-benzenesulfonamide]
0.013 | c1ccc2c(c1)CC[C@H]2NC1=Nc2cccc(C3CC3)c2CO1 [Example 12, (5-Cyclopropyl-4H-benzo[d][1,3]oxazin-2-yl)-(R)-indan-1-yl-amine]
0.003 | Nc1cccc2c1COC(N[C@@H]1CCc3ccccc31)=N2 [Example 3, (R)—N^2-Indan-1-yl-4H-benzo[d][1,3]oxazine-2,5-diamine]
0.118 | N#Cc1cccc2c1COC(N[C@@H]1CCc3ccccc31)=N2 [Example 11, 2-((R)-Indan-1-ylamino)-4H-benzo[d][1,3]oxazine-5-carbonitrile]
0.169 | O=[N+]([O-])c1cccc2c1COC(N[C@@H]1CCc3ccccc31)=N2 [Example 2, (R)-Indan-1-yl-(5-nitro-4H-benzo[d][1,3]oxazin-2-yl)-amine]
